Read-outs that look alike come from different tables or passages of the source.
How the values were obtained:
[1] = cited from earlier work
[2] = cited from earlier work; remark: listed apart in the source
[3] = cited from earlier work; remark: listed apart in the source
[4] = cited from earlier work; remark: listed apart in the source
[5] = saturated donor solution in water, receptor pH 7.4, 37° C., 0-26 hrs; compared to human, rat, pig skin
[6] = Transdermal diffusion (cumulative flux) through rat skin samples; conditions: rat skin samples of different ages, or rat versus human skin
[7] = separate human skin samples compared
[8] = Transdermal diffusion, vertical Franz Cell, untreated membrane; assay type: in vitro ADME; conditions: saturated donor solution in water, Sorensen's buffer pH 7.4 receptor, 37° C., 0-26 hrs
Method: Conditions for HPLC analysis of flufenamic acid are as noted below: Column Used: Zorbax XDB C18, 3.9 mm×150 mm, 5 μm Mobile Phase Used: 90% Methanol+10% water containing 40 mM acetic acid; Detection wavelength: 280 nm.

SMILES	Aqueous Solubility, LogS [1]	Log D (pH 7.4) [2]	Log P [3]	also measured
CCCCNc1ccc(C(=O)OCCN(C)C)cc1 [Tetracaine]	−2.75	2.75	3.649	pKa [4]: 8.24
C[C@@H]1C[C@H]2[C@@H]3CCC4=CC(=O)C=C[C@]4(C)[C@@]3(F)[C@@H](O)C[C@]2(C)[C@@]1(O)C(=O)CO [Dexamethasone]	−3.89		1.869	diffusion (cumulative flux) across treated membrane relative to skin [5]: diffusion similar to human and pig skin; Log P ([3]; listed as dexamethasone): 1.896; pKa [4]: 12.14
Oc1cc(Cl)ccc1Oc1ccc(Cl)cc1Cl [Triclosan/Irgasan, Triclosan]			4.76	
Clc1ccccc1C(c1ccccc1)(c1ccccc1)n1ccnc1 [Clotrimazole]	−5.37		6.1	diffusion (cumulative flux) across treated membrane relative to skin [5]: high degree of correlation with human skin
CC(=O)Oc1ccccc1C(=O)O [Acetyl Salicylic Acid (Aspirin), Acetyl Salicylic Acid]		−1.89		
C[C@]12CCC(=O)C=C1CC[C@@H]1[C@@H]2[C@@H](O)C[C@@]2(C)[C@H]1CC[C@]2(O)C(=O)CO [Hydrocortisone]			1.462	pKa [4]: 12.48; diffusion (cumulative flux) through rat skin [6]: does not appear to show a high degree of correlation with human skin
COC(=O)c1ccc(O)cc1 [Methyl paraben, methyl p-hydroxybenzoate]				diffusion (cumulative flux) through separate human skin samples [7]: high degree of variability between the different human skin samples
O=C(c1ccccc1)c1ccc2n1CCC2C(=O)O (stereo not shown) [Ketorolac]	−2.7			
CN(C)CCCN1c2ccccc2Sc2ccc(Cl)cc21 [Chlorpromazine]	−5.01	3.22	5.203	
CC(C(=O)O)c1ccc(-c2ccccc2)c(F)c1 (stereo not shown) [Flurbiprofen]	−4.49	0.98	4.115	
O=C(O)Cc1ccccc1Nc1c(Cl)cccc1Cl [Diclofenac]		0.95	4.05	
O=C(O)c1ccccc1Nc1cccc(C(F)(F)F)c1 [Flufenamic Acid]			5.2	diffusion (cumulative flux) across untreated membrane relative to human skin [8]: better correlation to human skin than the treated membrane
COc1cc(Cc2cnc(N)nc2N)cc(OC)c1OC [Trimethoprim]	−2.67			
CN1CCCC1c1cccnc1 (stereo not shown) [Nicotine]	−0.24	0.02	0.72	diffusion (cumulative flux) through rat skin [6]: variability between the rat and human skin samples

From US8765254B2, “Polymeric membranes with human skin-like permeability properties and uses thereof” (EMD Millipore Corporation, priority 2010, dated 2014)
